Measured values from US20250082766A1, “TREATMENT OF BRAIN TUMORS BY TARGETING THE CHOLESTEROL PATHWAY IN ASTROCYES” (Ramot at Tel-Aviv University Ltd., priority 2022, published 2025).

Key:
[1] = test system: reactive astrocytes / GL261 glioma; test: Reactive astrocyte depletion with GCV in GL261-bearing WT or Gfap-TK mice; type: in vivo, mouse
Text: FIGS. 1A-I illustrate that depletion of Tumor-associated astrocytes (TAAs) regress glioblastoma progression. (FIG. 1A) Representative immunofluorescence images of reactive TAAs stained for GFAP (cyan) crowning a glioblastoma (GBM) tumor (GFP^+-GL261, white), and nuclei (DAPI, yellow). The right image is an expansion of the area marked by the white box. (n=3 biologically independent experiments, 3 mice per group). Scale bar, 1000 m; (FIGS. 1B-I) WT (wild type), or Gfap-TK GBM-bearing mice were treated daily with Ganciclovir (GCV, 25 mg/kg) from day 10 until the experimental endpoint as illustrated in FIG. 1B. (FIG. 1C) representative immunofluorescence images of reactive astrocyte depletion at the tumor margins (GFP^+-GL261, white), as detected by GFAP staining (cyan). Scale bars, 500 m. Data are representative of three independent experiments with n=4 mice/group. (FIGS. 1D-G) Tumor size in GCV-treated WT or Gfap-TK GBM-bearing littermates. (FIGS. 1D-E) Representative images of GL261-derived bioluminescence from each group are shown in FIG. 1D and quantification of tumor size in FIG. 1E. Data are representative of five independent experiments with n=6 mice/group. (FIGS. 1F-G) Representative images from each group, 17 days after GL261 cell implantation, are shown in FIG. 1F with quantification of tumor size in FIG. 1G, tumor (GL261 cells in purple), and nuclei (DAPI; white). Scale bar, 1000 m. Data are representative of three independent experiments with n=5 mice/group. (FIG. 1H) Bodyweight assessment of mice from FIGS. 1D-E. (FIG. 1I) Kaplan-Meier curves assessing overall survival. Data are representative of three independent experiments with n=8 mice/group. Data in FIGS. 1D-H are shown as mean±s.e.m. P values were determined by two-way ANOVA (FIGS. 1D-H) or Log rank (Mantel-Cox) test (FIG. 1I). *P<0.05, **P<0.01, ***P<0.001, n.s. not significant.
For intracranial mouse glioma, mice were anesthetized, positioned in a Stereotaxic Alignment System, and injected with 1.5×10^4 GL261 or CT-2A cells in 2 μl of DMEM. Injections were made to the right frontal lobe, approximately 2.5 mm lateral and 0.1 mm caudal from bregma at a depth of 3 mm. In-vivo bioluminescence imaging, following XenoLight D-luciferin Potassium Salt administration (150 mg/kg) i.p. administration, was determined using IVIS Spectrum system (PerkinElmer). Ganciclovir (GCV, Cymevene, Roche #SAP-10051872; 25 mg/kg), Diphtheria-toxin (DT, Sigma-Aldrich, #D0564; 1100 ng/mice), or vehicle control (PBS) were administered daily following tumor establishment (day 10), as previously described (Mayo, L., et al. Nat Med (2014) 20: 1147-1156). CD8^+ T cell depletion was performed using an anti-CD8 monoclonal antibody ([…], Bioxcell) or an isotype control monoclonal antibody (2A3, Bioxcell), as previously described (Takenaka, M. C. et al. Control of tumor-associated macrophages and T cells in glioblastoma via AHR and CD39. Nat Neurosci 22, 729-740 (2019)). GBM-bearing mice were intraperitoneally injected (0.1 mg/mouse) with an anti-CD8 or an isotype control mAbs, 1 day before, and 7 days after, GCV administration. CD8 T-cell depletion was validated by FACS analysis using a Sony SH800 FACS instrument (Sony Biotechnology). Data analysis was performed using FlowJo v10 (TreeStar, USA). The following reagents were used for analysis: anti-CD45 (1:100; 30-F11, Biolegend, #103106), anti-CD3[…] (1:50; 145-2C11, Biolegend #100335), and anti-CD8a (1:100; 53-6.7, Biolegend, #100765).
To study the role of TAAs in glioblastoma, the course of tumor progression was analyzed in mice expressing the herpes simplex virus thymidine kinase (HSVtk) under the Gfap promotor (Gfap-TK), in which Ganciclovir (GCV) administration can deplete reactive astrocytes. For this purpose, GFP^+GL261-Luc (GL261) was intracranially injected […], into syngeneic C57Bl/6 WT or into Gfap-TK littermates. […]

glioma = conditions: OXPHOS-targeting drugs; cited from earlier work
[2] = test system: GL261 and CT-2A glioma cells; test: Cell viability assay (Annexin V/DAPI FACS) of glioma cells; type: cell-based, mouse; conditions: GL261 or CT-2A in LPDS-media; cholesterol 250 ng/ml for 5 days; FIGS. 5F-G
Method: FIGS. 5A-N illustrate that astrocyte-derived cholesterol supports glioma survival. (FIGS. 5A-D) Real-time changes in the ECAR (FIGS. 5A-B) and oxygen consumption rate (OCR) (FIGS. 5C-D) of GL261 glioma cells, cultured in media supplemented with full serum (FCS, fetal calf serum) or lipoprotein-deprived serum (LPDS, Lipoprotein-deficient serum) for 18 hours and measured using Seahorse. Oligo, oligomycin; FCCP, carbonyl cyanide4-(trifluoromethoxy) phenylhydrazone; R/A, rotenone plus antimycin A; 2-DG, 2-deoxy-d-glucose. Glycolysis, glycolytic capacity and glycolytic reserve were extracted from the ECAR reading, and basal respiration, adenosine triphosphate (ATP) production, Maximal respiration, and spare respiratory capacity were determined based on OCR. Data are representative of two independent experiments (n=6 technical replicates per experiment). (FIG. 5E) Percentage of cell death of GL261 and CT-2A glioma cells, or primary astrocytes, cultured in FCS or LPDS for 5 days; as determined by Annexin-V assay (n=5 independent experiments). […] Representative flow cytometry plots of Annexin-V/DAPI staining from each group are shown in FIG. 5F and quantification analyses of cholesterol rescue are in FIG. 5G (n=5 biologically independent experiments). (FIGS. 5H-K) Representative images and quantification of LDLR expression (Immunoblot, FIGS. 5H-I) and cell death via FACS analysis of Annexin V/DAPI staining (FIGS. 5J-K) in response to endogenous LXR agonists (24-OHC) or Mock (DMSO) treatment in GL261 and CT-2A cells (n=3 biologically independent experiments). […] (FIGS. 5L-M) Representative flow cytometry plots of murine GL261 and CT-2A glioma cells co-cultured for 5 days with primary mouse astrocytes are shown in FIG. 5L and quantification analyses in FIG. 5M (n=4 biologically independent experiments). (FIG. 5N) quantification analyses of human U87EGFRvIII (U87) glioma cells co-cultured with human primary astrocytes for 5 days (n=3 biologically independent experiments). […]

For `Nc1nc(O)c2ncn(COC(CO)CO)c2n1` [GCV, Ganciclovir], the “reactive astrocytes around the tumors (GFAP staining)” value ([1]; GBM-bearing Gfap-TK mice (not in WT mice), GCV 25 mg/kg daily from day 10, FIG. 1C) was “specific ablation of reactive astrocytes”, the weight loss ([1]; GCV-treated GL261-bearing Gfap-TK mice vs WT littermates, FIG. 1H) was “significantly attenuates the weight loss” and the survival ([1]; GCV-treated GL261-bearing Gfap-TK mice vs WT littermates, FIG. 1I) was “dramatically improves their survival”. The “accumulation of IBA-1+ TAMs in the TME” value ([1]; GCV-treated GL261-bearing Gfap-TK vs WT mice, day 17, FIGS. 3D-E) was “significantly reduces”, the “tumor size (bioluminescence, histology)” value ([1]; GL261-bearing Gfap-TK mice, GCV 25 mg/kg daily from day 10, FIGS. 1D-G) was “dramatic tumor regression” and the “GBM progression (tumor size, bioluminescence)” value ([1]; GL261-bearing WT mice, GCV 25 mg/kg daily vs vehicle, FIG. 7A) was “neither GCV treatment of WT mice nor genetic insertion of the HSVtk into Gfap-TK mice (without GCV treatment) affected GBM progression”. For the same compound, the survival ([1]; GL261-bearing WT mice, GCV vs vehicle, FIG. 7E) was “had no effect on survival”.
In the case of `Cc1nc(-c2nc(-c3ccc(OC(F)(F)F)cc3)no2)nn1Cc1cccc(N2CCC(S(C)(=O)=O)CC2)c1` [IACS-010759], the “glioma proliferation and cell death” value (glioma) is given as “inhibit glioma proliferation and induce cell death”.
In the case of `CC(C)CCC[C@@H](C)[C@H]1CC[C@H]2[C@@H]3CC=C4C[C@@H](O)CC[C@]4(C)[C@H]3CC[C@]12C` [cholesterol], the “rescue of glioma viability from lipoprotein-bound cholesterol deprivation” value [2] is reported as “overcame the deleterious effects of lipoprotein-bound cholesterol deprivation on glioma viability”.
In the case of `CN(C)C(=N)N=C(N)N` [metformin], the “glioma proliferation and cell death” value (glioma) is given as “inhibit glioma proliferation and induce cell death”.
